Results published in patent US6455522B1, “Cyclic sulfonamide derivatives as metalloproteinase inhibitors” (Bristol-Myers Squibb Pharma Company, priority 1998, dated 2002).

Test system: cartilage degradation
Test: Acute Cartilage Degradation Rat Model
Assay type: in vivo
Conditions: rats, after compound administration
Description: A novel in vivo model of acute cartilage degradation in rats has been characterized as a method to determine the proteoglycan content in the synovial fluid after the induction of cartilage degradation.

For `COc1ccc2c(c1)c(CC(=O)O)c(C)n2C(=O)c1ccc(Cl)cc1` [Indomethacin], the “ability to inhibit the demonstration of cartilage degradation, as measured by increased proteoglycan content in the synovial fluid” value was “inactive”.
